Tested on: A549 lung carcinoma cells
Assay: Oxidative stress induction in A549 cells, GSH/GSSG measured by LC-MS/MS
Type: cell-based, human
Details: 100 μmol/L H2O2 for 15 min
Method: Cell culture: A549 human lung carcinoma cells were obtained from CLS Cell Lines Service, Eppelheim, Germany, and were cultured in RPMI medium supplemented with 10% fetal bovine serum and 2 mmol/L glutamine in a 5% CO2, 37° C. incubator. For H2O2 treatment, cells were seeded in 12-well plates (300000 cells/well) and after a day in culture treated with 500 μl of control (Ca2+, Mg2+-PBS) or 100 μmol/L H2O2 in Ca2+, Mg2+-PBS for 15 min followed by two PBS washing steps and the NEM (2.5 mmol/L) incubation step. The detailed stabilisation workflow is illustrated in FIG. 1 and example 2.
Method overview: The method was tested and fully optimized for three different sample types: cells, blood and tissue. In clinical measurements available sample amount is often a limiting factor. The high sensitivity of the presented method enables analysis of scarce samples as minimal sample amounts are required. Typically, 5 μL of blood, 3-5 mg of tissue sample or 300.000 cells were used as starting material. […] All three analytes GSH-NEM, GSH-d5-NEM and ^13C, ^15N-GSH-d5-NEM (IS) were then simultaneously measured by LC-MS/MS using an MRM-based approach (FIG. 1, step 4), see also example 4.
Chromatography was carried out on a Dionex UltiMate 3000 system equipped with a Zorbax SB-C18 column (50 mm×4.6 mm, 1.8 μm, Agilent, USA). […] The sum of areas under both peaks was used for integration and quantification. […]

`OO` [H2O2] was tested, and the GSH/GSSG ratio (GSSG measured as GSH-d5-NEM) was “drastically reduced” and the “intracellular GSH values” (vs control PBS) was “depleted”.

From patent US12216125B2, “Method and kit for isotope-labelling of a glutathione-containing biological sample for mass spectrometry” (TECHNISCHE UNIVERSITÄT WIEN, priority 2018, dated 2025)
